Data taken from ChEMBL document CHEMBL3272268 (J Med Chem, 1978).

Target: Serotonin (5-HT) receptor
Assay: Competitive antagonist activity at 5-HT serotonin receptor in Sprague-Dawley rat stomach fundus model assessed as inhibition of 5-HT-induced contractile response

- pA2: 5.45
Structure (SMILES): COc1ccc(OC)c(CCCN(C)C)c1
